Assay: Human HepG2 cell viability assay in 384 well format
Assay type: toxicity, cell-based
Parameters: dose 125 nL, time 70.5 hour; concentration not given beside the values
Details: HepG2 cells, read-out: Inhibition

`CCNC(=O)C1CCN(c2cc(CC)nc3ccnn23)C1` (stereo unspecified) showed a cytotoxicity at 70.5 h of 15.1%.
In the case of `Cc1nc(C)c(CNCc2nnc3n2CCCC3C(F)(F)F)s1` (stereo unspecified), the cytotoxicity at 70.5 h is reported as -8.57%.
In the case of `CC(C)NC(=O)N1CCN(S(=O)(=O)C2CC2)CC2(CNC(=O)C2)C1` (stereo unspecified), the cytotoxicity at 70.5 h is reported as 1.9%.
For `Cc1ccc(NC(=O)C(C)N2CCCN(c3nccs3)CC2)c(C)c1` (stereo unspecified), the cytotoxicity at 70.5 h was -7.1%.
`Cc1nn(C)c2ncc(NC(=O)N(C)Cc3cnn(C)c3)cc12` showed a cytotoxicity at 70.5 h of -14%.
Work on `O=C(c1ccncn1)N1C[C@H]2CCC[C@@]2(COCC2CCOCC2)C1` yielded a cytotoxicity at 70.5 h of -14.6%.
Work on `CN(CC(N)=O)C(=O)c1cc(Cl)c(Cl)n1C` yielded a cytotoxicity at 70.5 h of -5.05%.
For `Cc1ccc2c(c1)SCC(=O)N2CC(=O)N1CCCC1c1cc(C)no1` (stereo unspecified), the cytotoxicity at 70.5 h was 12.8%.
`O=C(NCCCN1CCCC1=O)c1nc(-c2ccc3[nH]ccc3c2)no1` showed a cytotoxicity at 70.5 h of -29.3%.
`Cc1c(C(C)NC2CCN(C(C)C)CC2)cnn1-c1ccc(F)cc1F` (stereo unspecified) gave a cytotoxicity at 70.5 h of -9.98%.
For `Cc1c(C2CCCN(C(=O)OC(C)(C)C)C2)n2c(nc1=O)CCC2` (stereo unspecified), the cytotoxicity at 70.5 h was -5.64%.
For `O=C(c1cnc2ccc(Cl)cc2c1NCc1ccco1)N1CCCCC1`, the cytotoxicity at 70.5 h was 23.3%.
Molecule `CC(C)N(C)C(=O)C1=NOC2(CCN(C(=O)NCc3cccnc3)C2)C1` (stereo unspecified) has a cytotoxicity at 70.5 h of -9.91%.
`CCc1ncc2c(n1)CN(c1nnc(C)c(C)c1C#N)CC2` gave a cytotoxicity at 70.5 h of 5.31%.
In the case of `Cc1noc(Cl)c1CCC(=O)N1CCCCC1Cn1cccn1` (stereo unspecified), the cytotoxicity at 70.5 h is reported as 1.4%.
Molecule `Cc1nc2c(c(NCC(O)C(F)(F)F)n1)CCNCC2` (stereo unspecified) has a cytotoxicity at 70.5 h of 11.7%.
With `O=C([C@H]1CC[C@@H]2[C@@H](CCN2C2CCOCC2)O1)N1CCOCC1` the cytotoxicity at 70.5 h was -6.52%.
In the case of `O=C(NCCc1ccncc1)c1cccc(S(=O)(=O)NC2CC2)c1`, the cytotoxicity at 70.5 h is reported as 1.33%.
In the case of `COC(=O)c1ccc2ccn(CC3CCCO3)c(=O)c2c1` (stereo unspecified), the cytotoxicity at 70.5 h is reported as -0.903%.
Molecule `CCc1ccc(C(=O)N2CCC3(CCC(=O)N(CCN(C)C)C3)CC2)[nH]1` has a cytotoxicity at 70.5 h of -1.77%.
`CN(C)Cc1nnc(C2CCN(c3ncccc3Cl)CC2)n1C1CC1` gave a cytotoxicity at 70.5 h of 8.65%.
In the case of `O=C(CCc1nc(-c2cccnc2)no1)N(CC1CCOC1)C1CC1` (stereo unspecified), the cytotoxicity at 70.5 h is reported as 12%.
For `Cc1ccc(N2CCCN(C(=O)c3cn(C)c4ccccc34)CC2)nn1`, the cytotoxicity at 70.5 h was -7.87%.
`CCc1cc(N[C@H]2CCC[C@H]2O)n2nccc2n1` gave a cytotoxicity at 70.5 h of 7.67%.
Work on `N#Cc1nccnc1N1CCC(C(O)c2cccs2)CC1` (stereo unspecified) yielded a cytotoxicity at 70.5 h of 10.4%.
For `CC1CCCCN1c1nc2c(c(=O)[nH]1)CCN(Cc1ccccc1O)C2` (stereo unspecified), the cytotoxicity at 70.5 h was -7.53%.
Work on `CCN1CC[C@]2(CN(C(=O)C3CCOCC3)C[C@H]2c2ccccc2)C1=O` yielded a cytotoxicity at 70.5 h of 0.473%.
For `CCC1CN(CC(=O)Nc2sccc2C#N)CCO1` (stereo unspecified), the cytotoxicity at 70.5 h was -8.24%.
In the case of `CN(Cc1cc(-c2cccnc2)no1)C(=O)C1CCCN1S(C)(=O)=O` (stereo unspecified), the cytotoxicity at 70.5 h is reported as -8.25%.
Molecule `CCN(C(=O)c1nc2c(s1)CCCN2Cc1ccccc1)C(C)C` has a cytotoxicity at 70.5 h of -7.5%.
`Cc1ccc(C(=O)N2CCCC(CNS(=O)(=O)C(C)C)C2)cc1` (stereo unspecified) showed a cytotoxicity at 70.5 h of -3.09%.
In the case of `Cc1noc(C)c1CN1CCOCC12CCN(c1ncccn1)CC2`, the cytotoxicity at 70.5 h is reported as -8.87%.
`CN1CCN(C(C)(C)CNC(=O)C2CCCN2S(C)(=O)=O)CC1` (stereo unspecified) gave a cytotoxicity at 70.5 h of -6.25%.
For `CC(C)c1nnc2n1CCN(CCC(=O)N1CCc3ccccc31)C2`, the cytotoxicity at 70.5 h was -5.29%.
In the case of `CN1CCN(C[C@@H]2OC[C@H]3CN(Cc4ccncc4)CC[C@H]32)CC1`, the cytotoxicity at 70.5 h is reported as 0.409%.
`Nc1cnc(-c2cccc3c2CCNC3)cn1` showed a cytotoxicity at 70.5 h of -15.3%.
Molecule `CNc1ncccc1CN1CCCCC1c1ccnc(N)n1` (stereo unspecified) has a cytotoxicity at 70.5 h of -3.08%.
Molecule `O=C(NCc1ccccn1)N(Cc1ccc(F)cc1F)C1CC1` has a cytotoxicity at 70.5 h of -17.3%.
`Cc1cnn(CC2CCCN2CC(=O)Nc2nccs2)c1` (stereo unspecified) showed a cytotoxicity at 70.5 h of 3.35%.
`NC(=O)C1CCN(Cc2ccc(S(=O)(=O)N3CCCC3)o2)CC1` gave a cytotoxicity at 70.5 h of -3.5%.
For `CC(NC(=O)NCCCN1CCCC1)c1nncn1C` (stereo unspecified), the cytotoxicity at 70.5 h was -7.79%.
Molecule `CC(C)(C)NC(=O)Cn1c(=O)n(Cc2ccco2)c2ncccc21` has a cytotoxicity at 70.5 h of -3.69%.
`CCn1c(CN(C)C)nnc1C1CCN(Cc2ccncc2)CC1` showed a cytotoxicity at 70.5 h of -6.3%.
For `CCn1cc(CNC(=O)CCc2nnc(-c3ccc(C)s3)o2)cn1`, the cytotoxicity at 70.5 h was 10%.
Molecule `O=C(NC1CCN(c2ccccc2OC(F)F)C1)c1cccnc1` (stereo unspecified) has a cytotoxicity at 70.5 h of -4.78%.
Work on `COc1ccc(C(=O)Nc2cnn(CCN3CCOCC3)c2)c(O)c1` yielded a cytotoxicity at 70.5 h of 0.79%.
For `CC(=O)N1CCN(C(=O)CNc2ccc3sccc3c2)CC1`, the cytotoxicity at 70.5 h was -4.15%.
In the case of `CC(=O)NCCNC(=O)c1sc(-c2ccc(C)cc2C)nc1C`, the cytotoxicity at 70.5 h is reported as 0.801%.
With `CC(O)Cc1cn(CC2CCN(C3CCSCC3)CC2)nn1` (stereo unspecified) the cytotoxicity at 70.5 h was -4.31%.
For `Cc1cc(CN(C)Cc2csc(-c3ccc(C(C)C)cc3)n2)no1`, the cytotoxicity at 70.5 h was 14.4%.
In the case of `Cc1nccn1-c1cccc(C2CCCN2S(=O)(=O)N(C)C)n1` (stereo unspecified), the cytotoxicity at 70.5 h is reported as 2.07%.
With `COCc1nn(CC2CC2)c2c1CN(Cc1cccs1)CC2` the cytotoxicity at 70.5 h was -8.23%.
Work on `CCc1nc(CN2CCCN(C(=O)COC)CC2)cs1` yielded a cytotoxicity at 70.5 h of -6.47%.
Molecule `CCc1ccc(CCn2cnc(C#N)n2)cc1` has a cytotoxicity at 70.5 h of -7.83%.
With `CC(=O)c1ccn(CC(=O)Nc2nn(CC3CC3)c3ccccc23)n1` the cytotoxicity at 70.5 h was -10.7%.
`COc1cc(NC2CCS(=O)(=O)CC2)ncn1` showed a cytotoxicity at 70.5 h of -16.4%.
In the case of `Cc1cccc(C2(CNC(=O)CO)CCCC2)c1`, the cytotoxicity at 70.5 h is reported as 17.1%.
Work on `CCN(CC)Cc1cn2c(n1)CN(C1CCOC1)CC2` (stereo unspecified) yielded a cytotoxicity at 70.5 h of -4.42%.
`Cc1cc2c(cc1C(=O)N1CCC3(CC(=O)NC3=O)C1)OCCO2` (stereo unspecified) showed a cytotoxicity at 70.5 h of 10.6%.
Work on `COc1cc(F)c(-n2cnc(CCNC(C)=O)c2)cc1F` yielded a cytotoxicity at 70.5 h of -10.8%.
For `O=C1CCOC[C@]2(CN(Cc3ccccc3)C[C@H]2c2cccnc2)N1`, the cytotoxicity at 70.5 h was 15.4%.
In the case of `COCCN1CCCC(c2ncc(C(=O)N(C)C)c(C)n2)C1` (stereo unspecified), the cytotoxicity at 70.5 h is reported as -1.17%.
In the case of `CCC(NC(N)=O)c1ccccc1OCC(=O)N1CCCC1` (stereo unspecified), the cytotoxicity at 70.5 h is reported as -10.1%.
For `CC(C)CN(c1cn[nH]c1)S(=O)(=O)c1cccc(C#N)c1`, the cytotoxicity at 70.5 h was -6.94%.
Molecule `O=C(c1cccc(C2CCNC2)c1)N1CCC(c2ncc[nH]2)CC1` (stereo unspecified) has a cytotoxicity at 70.5 h of -17%.
In the case of `CC1CN(C)CCN1C(=O)c1ccn(-c2cccc(Cl)c2)n1` (stereo unspecified), the cytotoxicity at 70.5 h is reported as -13.2%.
Work on `COCCc1noc(CN2CCCC2c2noc(C3CC3)n2)n1` (stereo unspecified) yielded a cytotoxicity at 70.5 h of -1.05%.
`CNc1cncc(C2CCCN2C(=O)Cn2c(=O)oc3ccccc32)n1` (stereo unspecified) showed a cytotoxicity at 70.5 h of -5.11%.
Molecule `CCc1cc(N(C)Cc2ccnc(C)c2)n2nc(C)c(C)c2n1` has a cytotoxicity at 70.5 h of 40.9%.
`Cc1cc(N2CCCC(c3[nH]ncc3Cc3ccccc3)C2)nc(N)n1` (stereo unspecified) gave a cytotoxicity at 70.5 h of 11.1%.
For `COc1cc(C)ccc1C(=O)N1CCC2(CCC(=O)N(C(C)C)C2)CC1`, the cytotoxicity at 70.5 h was -4.16%.
For `Cc1nc(C2CCCN(C(=O)c3ccc(OCC4CC4)nc3)C2)no1` (stereo unspecified), the cytotoxicity at 70.5 h was -2.87%.
With `Fc1ccc(CN2CCO[C@H]3[C@H](OCC4CC4)CC[C@@H]32)cc1` the cytotoxicity at 70.5 h was -4.72%.
Molecule `COCC(=O)N1CCOCC2(CCN(Cc3cccs3)C2)C1` (stereo unspecified) has a cytotoxicity at 70.5 h of -10.6%.
For `O=c1c2ccccc2cnn1Cc1cncn1C1CC1`, the cytotoxicity at 70.5 h was -6.14%.
`CCNC(=O)Cc1n[nH]c(-c2cncc(Br)c2)n1` showed a cytotoxicity at 70.5 h of 32%.
With `C=C1c2ccccc2C(=O)N1CCC(=O)N1CCNC(=O)C1` the cytotoxicity at 70.5 h was 3.89%.
For `Cc1nn(C)c(N(C)C)c1CNC(C)COc1ccccc1F` (stereo unspecified), the cytotoxicity at 70.5 h was -11.1%.
`O=C(Nc1ccccn1)C1CCN(C(=O)COc2ccccc2F)C1` (stereo unspecified) gave a cytotoxicity at 70.5 h of 18.6%.
Work on `CC1c2ncc(COCC3CC3)n2CCN1C(=O)c1ccnnc1` (stereo unspecified) yielded a cytotoxicity at 70.5 h of -5.45%.
With `CCN(Cc1ccoc1)C(=O)C1CCN(C(=O)OC(C)(C)C)C1` (stereo unspecified) the cytotoxicity at 70.5 h was 18.9%.

From ChEMBL document CHEMBL3507680, “University of Dundee, Gates Library screen for HepG2 cell viability”
